Data set [1] can be described thus: Inhibition of human tryptase-beta using chromogenic substrate S-2366 after 30 mins by spectrophotometry.
The test system of data set [2] is semicarbazide-sensitive amine oxidase (SSAO). Description: Chemical stability in presence of 56 ug/mL of human recombinant semicarbazide-sensitive amine oxidase assessed as compound remaining after 24 hrs by LC/MS method. The data set is classed as physicochemical. As to conditions: read-out: Stability.
Data set [3] in a line: Metabolic stability in human liver microsomes after 20 mins. The data set is classed as ADME, Microsome. Particulars: read-out: Stability.
A short description of data set [4]: Metabolic stability in guinea pig liver microsomes after 20 mins. The data set is classed as ADME, Cavia porcellus, Microsome. As to conditions: read-out: Stability. In general terms: Liver microsomes are a subcellular fraction often used to study metabolism.
The nature of data set [5]: Metabolic stability in rat liver microsomes after 20 mins. The data set is classed as ADME, Microsome. Particulars: read-out: Stability.
The target in the next data set is hERG (KCNH2) (Homo sapiens, UniProt Q12809). Briefly: Inhibition of human ERG at 10 uM.
For the next data set, the target named is Cytochrome P450 3A4 (Homo sapiens, UniProt P08684). Briefly: Inhibition of CYP3A4. The data set is classed as ADME.

pKi: −log10 of the molar value. Some results are limits rather than exact numbers.

Data on two compounds can be found in ChEMBL document CHEMBL1268849, “A conformationally constrained inhibitor with an enhanced potency for β-tryptase and stability against semicarbazide-sensitive amine oxidase (SSAO)” (Bioorg Med Chem Lett, 2010).

Cytochrome P450 3A4, sequence (P08684 whole entry): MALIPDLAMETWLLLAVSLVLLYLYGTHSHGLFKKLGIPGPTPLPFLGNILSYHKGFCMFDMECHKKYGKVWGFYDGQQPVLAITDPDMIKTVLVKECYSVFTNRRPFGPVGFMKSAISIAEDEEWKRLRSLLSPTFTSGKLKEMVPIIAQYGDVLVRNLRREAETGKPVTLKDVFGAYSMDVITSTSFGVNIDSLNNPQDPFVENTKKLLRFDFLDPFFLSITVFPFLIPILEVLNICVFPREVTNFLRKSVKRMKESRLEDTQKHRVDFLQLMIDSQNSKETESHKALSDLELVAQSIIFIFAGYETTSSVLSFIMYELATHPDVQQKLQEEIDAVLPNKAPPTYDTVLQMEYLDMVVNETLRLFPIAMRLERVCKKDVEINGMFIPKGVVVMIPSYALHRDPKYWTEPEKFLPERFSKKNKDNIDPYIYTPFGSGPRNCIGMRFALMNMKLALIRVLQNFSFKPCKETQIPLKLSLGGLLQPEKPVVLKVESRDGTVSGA
hERG (KCNH2), sequence (Q12809 whole entry): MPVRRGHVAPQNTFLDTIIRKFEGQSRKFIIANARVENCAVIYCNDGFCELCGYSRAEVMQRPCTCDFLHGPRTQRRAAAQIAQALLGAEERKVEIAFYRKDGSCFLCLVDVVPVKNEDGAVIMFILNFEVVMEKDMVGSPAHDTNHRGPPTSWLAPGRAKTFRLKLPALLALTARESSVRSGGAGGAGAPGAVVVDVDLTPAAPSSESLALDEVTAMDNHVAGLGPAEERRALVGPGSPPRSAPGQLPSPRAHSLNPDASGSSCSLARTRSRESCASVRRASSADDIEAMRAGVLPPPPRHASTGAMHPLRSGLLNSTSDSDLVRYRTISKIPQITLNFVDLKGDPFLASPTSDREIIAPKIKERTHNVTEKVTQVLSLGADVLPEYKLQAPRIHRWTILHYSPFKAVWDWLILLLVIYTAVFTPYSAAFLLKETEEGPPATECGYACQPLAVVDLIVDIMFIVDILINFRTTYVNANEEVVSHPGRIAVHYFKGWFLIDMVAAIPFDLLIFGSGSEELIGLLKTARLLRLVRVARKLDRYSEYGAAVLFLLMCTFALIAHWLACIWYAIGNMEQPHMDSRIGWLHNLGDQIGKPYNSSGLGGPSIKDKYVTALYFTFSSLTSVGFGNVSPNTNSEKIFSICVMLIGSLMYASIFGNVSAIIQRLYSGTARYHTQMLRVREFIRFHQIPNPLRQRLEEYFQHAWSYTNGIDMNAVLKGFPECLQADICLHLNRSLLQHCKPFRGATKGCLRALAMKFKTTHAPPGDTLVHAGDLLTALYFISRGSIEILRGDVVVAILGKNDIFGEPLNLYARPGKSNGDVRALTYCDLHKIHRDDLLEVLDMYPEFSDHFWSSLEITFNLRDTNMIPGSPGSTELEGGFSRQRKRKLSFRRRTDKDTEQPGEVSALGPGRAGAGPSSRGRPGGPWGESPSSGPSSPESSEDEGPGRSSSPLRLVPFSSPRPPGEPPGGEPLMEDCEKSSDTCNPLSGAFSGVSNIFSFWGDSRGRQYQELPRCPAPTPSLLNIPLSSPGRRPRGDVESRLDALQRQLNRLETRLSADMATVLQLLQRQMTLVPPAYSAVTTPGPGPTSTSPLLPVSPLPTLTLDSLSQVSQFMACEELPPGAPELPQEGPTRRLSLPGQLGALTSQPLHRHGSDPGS

Regarding `COCCn1cc(C(=O)N2CCC(c3cc(CN)ccc3F)CC2)c2c(C(=O)N(C)C)cccc21.Cl`, the pKi in data set [1] was 7.70. The remaining at 24 h in data set [2] turned out to be 100%. The remaining at 20 min was 67% in data set [3], 69% in data set [4] and 92% in data set [5]. Testing at 10 µM against hERG (KCNH2) gave an inhibition of 16%. The INH on Cytochrome P450 3A4 is over 30 µM.

On to `COCCn1cc(C(=O)N2CCC(c3cc(CN)ccc3F)CC2)c2ccccc21`, for which the pKi in data set [1] was 7.27. In addition, the remaining at 24 h in data set [2] is 67%.

The term pKi denotes −log10 of the Ki, conventionally taken in molar units. Lower therefore signals a large Ki. The term inhibition denotes the change of the read-out against control, counted positive when it falls. Read a high inhibition as a response far below the control.
